Assay results: article PMC10657792, “Downstream Allosteric Modulation of NMDA Receptors by 3-Benzazepine Derivatives” (Molecular Neurobiology, 2023)
pIC50: −log10 of the molar value.

Experiments:
Type in all cases: cell-based
GluN1b wt/ GluN2B wt = GluN1b wt/ GluN2B wt (Rattus norvegicus, UniProt P35439+Q00960); assay: TEVC recording in X. laevis oocytes in the presence of agonists and 200 µM spermine; details: agonists + 200 µM spermine; fitted curve
Method: (§1) The NMDAR was expressed in stage V and VI oocytes originated from X. laevis. Oocytes were provided by Ecocyte Bioscience (Dortmund, Germany), and equimolar amounts of wild-type and mutated GluN1 and GluN2B cRNA were injected (0.8 ng each). The oocytes were incubated in Barth’s solution, containing (mmol l^−1): 88 NaCl, 1 KCl, 0.4 CaCl2, 0.33 Ca(NO3)2, 0.6 MgSO4, 5 TRIS–HCl, 2.4 NaHCO3, supplemented with 80 mg l^−1 theophylline, 63 mg l^−1 benzylpenicillin, 40 mg l^−1 streptomycin, and 100 mg l^−1 gentamycin and maintained at 18 °C until usage. After injection, the oocytes were incubated for 5 days at 18 °C. Subsequently, the activity of the expressed NMDARs in the oocytes was recorded by two-electrode voltage clamp (TEVC).
(§2) The compounds were retrieved as 10 mM stock solutions in DMSO and were subsequently diluted with agonist solution and adjusted to 0.1% DMSO concentration. Inhibition of each compound was measured via TEVC in X. laevis oocytes at room temperature using a Turbo Tec 10CX amplifier (NPI electronic, Tamm, Germany), NI USB 6221 DA/AD Interface (National Instruments, Austin, USA), and GePulse Software (Dr. Michael Pusch, Genova, Italy). Ba^2+-Ringer, consisting of 10 mM HEPES, 90 mM NaCl, 1 mM KCl, and 1.5 mM BaCl2, adjusted to pH 7.4, was used for TEVC measurements. Agonist solution containing 10 µM glycine and 10 µM (S)-glutamate was prepared in Ba^2+-Ringer, and the measurements were performed at a holding potential of − 70 mV, using electrodes with a glass capillary filled with 3 M KCl and a resistance between 0.5 and 1.5 MΩ. […] Example traces for all recorded conditions can be found in Supplementary Figs. S2–S9.
(§3) TEVC data were analyzed using Ana (Dr. Michael Pusch, Genova, Italy), and statistics were performed using OriginPro 2020 (OriginLab Corporation, Northampton, USA). The inhibitory effect of each compound is calculated using the following equation: inhibition=1-Ic-Ih/Ia-Ih where Ih describes the current in the absence of agonists; Ia represents the steady-state current in the presence of the agonists; and Ic is defined as the steady-state after binding of agonist and compound. […] Data were statistically analyzed by one-way ANOVA and Tukey post-hoc mean comparison test in OriginPro 2020 (OriginLab Corporation, Northampton, USA). p values are indicated by * for p < 0.05, ** for p < 0.01, and *** for p < 0.001.
(§4) The NMDAR is probably modulated by polyamines such as spermine and spermidine in a similar way to exon 5 [22]. As described above, we recorded GluN1-1a/GluN2B and GluN1-1b/GluN2B expressing oocytes with 200 µM spermine and ascending concentrations of (R)-OF-NB1, to examine if the allosteric effects are mechanically in conjunction or can be potentiated. […]

GluN1a wt/ GluN2B wt = GluN1a wt/ GluN2B wt (Rattus norvegicus, UniProt P35439+Q00960); assay: as above; details: agonists + 200 µM spermine; fitted curve
Method: as §1, §2, §3, §4

GluN1b wt/ GluN2B F176A = GluN1b wt/ GluN2B F176A (Rattus norvegicus, UniProt P35439+Q00960, F176A); assay: TEVC recording in X. laevis oocytes, GluN2B mutant screening
Method: (§5) Single point mutations were incorporated into template DNA (GluN1-1b wt/ pSGEM and GluN2B wt/ pSGEM) by using the QuikChange II XL site-directed mutagenesis kit (Agilent Technologies, Germany). Mutagenesis primers were designed using the QuikChange Primer Design Program (Agilent) and provided by Microsynth (Microsynth AG, Balgach, Switzerland). For mutation of the desired amino acid in the gene, PCR amplification was performed with the respective mutagenesis primers (Eppendorf MasterCycler Gradient, Eppendorf Hamburg, Germany). Mutations were verified by automated DNA sequencing. Constructs were linearized with PacI (GluN1) or NheI (GluN2B). cRNA was prepared byin vitrotranscription using the mMessage mMachine T7 kit (Life Technologies, Darmstadt, Germany).
as §1
(§6) The compounds were retrieved as 10 mM stock solutions in DMSO and were subsequently diluted with agonist solution and adjusted to 0.1% DMSO concentration. Inhibition of each compound was measured via TEVC in X. laevis oocytes at room temperature using a Turbo Tec 10CX amplifier (NPI electronic, Tamm, Germany), NI USB 6221 DA/AD Interface (National Instruments, Austin, USA), and GePulse Software (Dr. Michael Pusch, Genova, Italy). Ba^2+-Ringer, consisting of 10 mM HEPES, 90 mM NaCl, 1 mM KCl, and 1.5 mM BaCl2, adjusted to pH 7.4, was used for TEVC measurements. Agonist solution containing 10 µM glycine and 10 µM (S)-glutamate was prepared in Ba^2+-Ringer, and the measurements were performed at a holding potential of − 70 mV, using electrodes with a glass capillary filled with 3 M KCl and a resistance between 0.5 and 1.5 MΩ. The compounds were tested by applying ascending concentrations, ranging from 1 to 30,000 nM, in at least six oocytes. Example traces for all recorded conditions can be found in Supplementary Figs. S2–S9.
(§7) TEVC data were analyzed using Ana (Dr. Michael Pusch, Genova, Italy), and statistics were performed using OriginPro 2020 (OriginLab Corporation, Northampton, USA). The inhibitory effect of each compound is calculated using the following equation: inhibition=1-Ic-Ih/Ia-Ih where Ih describes the current in the absence of agonists; Ia represents the steady-state current in the presence of the agonists; and Ic is defined as the steady-state after binding of agonist and compound. All dose response curves are fitted to the following logistic equation: y=A1-A2/1+x/x0^p+A2 where A1 describes the minimal inhibition of a compound and was set to 0; A2 represents the maximal inhibition of a compound; p is the slope of the curve; x0 is defined as the concentration at half-maximal inhibition; and x is the tested concentration. Data were statistically analyzed by one-way ANOVA and Tukey post-hoc mean comparison test in OriginPro 2020 (OriginLab Corporation, Northampton, USA). p values are indicated by * for p < 0.05, ** for p < 0.01, and *** for p < 0.001.

GluN1b wt/ GluN2B F114A = GluN1b wt/ GluN2B F114A (Rattus norvegicus, UniProt P35439+Q00960, F114A); assay: as above; details: fitted curve
Method: as §5, §1, §6, §7

GluN1a wt/ GluN2B F176A = GluN1a wt/ GluN2B F176A (Rattus norvegicus, UniProt P35439+Q00960, F176A); assay: as above; details: fitted curve
Method: as §5, §1, §6, §7

Sequence of GluN1b wt/ GluN2B F176A (Q00960 27-1482 F176A, other chains not shown): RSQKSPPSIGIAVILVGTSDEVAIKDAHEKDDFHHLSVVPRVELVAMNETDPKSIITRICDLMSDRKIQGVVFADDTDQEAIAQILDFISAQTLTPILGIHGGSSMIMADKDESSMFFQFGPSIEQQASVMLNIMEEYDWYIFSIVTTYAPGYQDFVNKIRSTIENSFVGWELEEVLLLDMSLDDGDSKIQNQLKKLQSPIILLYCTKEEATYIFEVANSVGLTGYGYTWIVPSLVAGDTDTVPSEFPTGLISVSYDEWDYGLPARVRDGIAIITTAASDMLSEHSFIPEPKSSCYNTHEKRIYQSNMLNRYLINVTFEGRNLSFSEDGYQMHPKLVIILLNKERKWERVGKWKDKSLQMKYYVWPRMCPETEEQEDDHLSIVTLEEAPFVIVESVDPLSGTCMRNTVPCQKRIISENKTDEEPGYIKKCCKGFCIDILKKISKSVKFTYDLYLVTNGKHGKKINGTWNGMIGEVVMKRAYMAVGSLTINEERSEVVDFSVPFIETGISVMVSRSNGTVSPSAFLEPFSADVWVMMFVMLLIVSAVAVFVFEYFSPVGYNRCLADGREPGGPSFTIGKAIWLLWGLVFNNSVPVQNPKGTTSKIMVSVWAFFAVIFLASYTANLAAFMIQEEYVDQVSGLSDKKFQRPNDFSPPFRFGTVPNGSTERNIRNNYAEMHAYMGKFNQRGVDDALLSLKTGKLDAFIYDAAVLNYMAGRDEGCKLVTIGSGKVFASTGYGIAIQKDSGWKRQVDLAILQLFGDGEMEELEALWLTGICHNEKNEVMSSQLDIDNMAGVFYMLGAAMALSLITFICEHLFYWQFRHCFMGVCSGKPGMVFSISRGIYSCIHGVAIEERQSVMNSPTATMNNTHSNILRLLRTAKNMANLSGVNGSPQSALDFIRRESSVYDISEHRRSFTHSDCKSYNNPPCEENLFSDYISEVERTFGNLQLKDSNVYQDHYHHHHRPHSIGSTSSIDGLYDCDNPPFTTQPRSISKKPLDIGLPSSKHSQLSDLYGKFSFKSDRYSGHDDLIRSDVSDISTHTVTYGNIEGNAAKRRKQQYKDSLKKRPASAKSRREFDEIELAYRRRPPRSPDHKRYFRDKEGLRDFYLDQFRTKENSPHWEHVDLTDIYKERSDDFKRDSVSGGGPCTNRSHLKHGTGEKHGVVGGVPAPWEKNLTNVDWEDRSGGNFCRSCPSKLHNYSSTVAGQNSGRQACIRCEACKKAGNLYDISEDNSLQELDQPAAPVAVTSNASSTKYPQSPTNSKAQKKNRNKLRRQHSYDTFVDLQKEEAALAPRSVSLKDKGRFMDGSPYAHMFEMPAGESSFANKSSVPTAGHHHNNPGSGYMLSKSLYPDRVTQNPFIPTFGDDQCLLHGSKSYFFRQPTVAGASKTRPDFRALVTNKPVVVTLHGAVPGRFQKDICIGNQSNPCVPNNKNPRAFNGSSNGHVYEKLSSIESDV
Sequence of GluN1a wt/ GluN2B wt (Q00960 27-1482, other chains not shown): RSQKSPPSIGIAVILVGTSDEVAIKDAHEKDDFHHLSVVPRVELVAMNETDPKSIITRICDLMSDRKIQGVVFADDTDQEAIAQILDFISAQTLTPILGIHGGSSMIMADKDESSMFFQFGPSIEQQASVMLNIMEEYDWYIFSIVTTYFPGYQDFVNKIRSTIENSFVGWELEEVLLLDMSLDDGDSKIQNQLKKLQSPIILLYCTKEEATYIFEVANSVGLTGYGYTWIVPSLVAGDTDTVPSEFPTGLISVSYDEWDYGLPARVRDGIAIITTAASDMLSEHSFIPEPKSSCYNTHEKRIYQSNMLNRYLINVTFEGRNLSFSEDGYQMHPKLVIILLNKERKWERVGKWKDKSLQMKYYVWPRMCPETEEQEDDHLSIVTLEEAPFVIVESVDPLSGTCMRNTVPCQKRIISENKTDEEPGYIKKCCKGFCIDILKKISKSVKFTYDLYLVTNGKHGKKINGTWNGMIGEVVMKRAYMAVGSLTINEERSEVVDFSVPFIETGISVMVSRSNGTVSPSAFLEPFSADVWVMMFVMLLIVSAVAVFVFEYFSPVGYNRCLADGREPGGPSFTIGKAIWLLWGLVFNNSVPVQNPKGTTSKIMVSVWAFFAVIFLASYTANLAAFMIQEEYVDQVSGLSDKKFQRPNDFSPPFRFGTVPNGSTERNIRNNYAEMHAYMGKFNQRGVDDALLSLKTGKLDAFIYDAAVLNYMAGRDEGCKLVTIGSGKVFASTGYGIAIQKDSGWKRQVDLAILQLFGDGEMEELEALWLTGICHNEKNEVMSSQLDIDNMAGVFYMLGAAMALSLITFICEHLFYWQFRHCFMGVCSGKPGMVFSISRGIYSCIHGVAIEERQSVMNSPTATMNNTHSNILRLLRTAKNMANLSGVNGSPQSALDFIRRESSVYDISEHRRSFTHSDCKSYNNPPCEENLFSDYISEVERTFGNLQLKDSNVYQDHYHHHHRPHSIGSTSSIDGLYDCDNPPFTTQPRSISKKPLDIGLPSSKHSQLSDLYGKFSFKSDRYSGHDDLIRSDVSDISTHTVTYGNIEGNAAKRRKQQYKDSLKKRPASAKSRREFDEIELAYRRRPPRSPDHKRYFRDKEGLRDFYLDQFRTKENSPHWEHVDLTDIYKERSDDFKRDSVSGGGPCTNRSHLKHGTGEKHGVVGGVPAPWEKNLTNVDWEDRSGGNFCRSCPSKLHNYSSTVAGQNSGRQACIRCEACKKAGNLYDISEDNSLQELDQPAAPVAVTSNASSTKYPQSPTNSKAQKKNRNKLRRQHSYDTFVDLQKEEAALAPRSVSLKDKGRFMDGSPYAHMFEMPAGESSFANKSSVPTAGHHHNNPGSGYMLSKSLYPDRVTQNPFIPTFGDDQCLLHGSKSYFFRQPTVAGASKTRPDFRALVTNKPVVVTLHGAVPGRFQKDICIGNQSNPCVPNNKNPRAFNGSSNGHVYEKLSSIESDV
Sequence of GluN1b wt/ GluN2B wt (Q00960 27-1482, other chains not shown): as above

Hill coefficient (GluN1b wt/ GluN2B wt): 1.8 | pIC50 (GluN1b wt/ GluN2B wt): 6.28 | Hill coefficient (GluN1a wt/ GluN2B wt): 1.4 | pIC50 (GluN1a wt/ GluN2B wt): 6.44 | inhibition at 1 µM (GluN1b wt/ GluN2B F176A; GluN1-1b/F176A, compound concentration 1 μM, single oocytes): 17.7% | inhibition at 10 µM (GluN1b wt/ GluN2B F176A; GluN1-1b/F176A, compound concentration 10 μM, single oocytes): 29.9% | pIC50 (GluN1b wt/ GluN2B F176A; agonists 10 µM glycine + 10 µM (S)-glutamate, fitted curve): 4.87 | Hill coefficient (GluN1b wt/ GluN2B F176A; fitted curve): 0.5 | pIC50 (GluN1b wt/ GluN2B F114A; agonists 10 µM glycine + 10 µM (S)-glutamate): 4.85 | Hill coefficient (GluN1b wt/ GluN2B F114A): 0.9 | Hill coefficient (GluN1a wt/ GluN2B F176A): 0.5
SMILES: Oc1ccc2c(c1)CCN(CCCCc1ccccc1F)C[C@@H]2O [(R)-OF-NB1]
